Laboratory results as given in US8586557B2, “Therapy of p53 mutant colon adenocarcinoma, breast cancer and lung cancer” (Peter MacCallum Cancer Institute, priority 2009, dated 2013).

Columns and labels:
Assay type in all cases: cell-based, human
SKBR3 cells = test: Trypan blue dye exclusion after Adriamycin exposure; conditions: SKBR3, Adriamycin 0.5 μg/mL 24 h
Method: Expression of certain p53 mutants confers cells with some resistance to genotoxic stress (Strano et al.). It was therefore important to define whether PML contributes to this biological effect of mutant p53. To this end PML expression was down regulated in SKBR3 cells and cells were exposed to 0.5 μg/ml Adriamycin for 24 h. The effect on cell survival was determined by Trypan blue dye exclusion. Down regulation of PML reduced the numbers of live cells (FIG. 6A(i)), whereas no significant increase in cell death was identified (FIG. 6A(ii)).

[1] = tested on: H1299 cells expressing exogenous mutant p53^175; test: Cell cycle analysis and flow cytometry; conditions: H1299 bearing mutant p53^175
Method: (§1) To ascertain the influence of PML levels on the proliferation of HT29 human cancer cells, they were subjected initially to metabolic evaluation using an MTT assay and cell cycle analysis using BrdUrd incorporation. […] This reduction was consistent with the reduced growth rate, but cannot explain the marked difference in cell numbers. It is important to clarify that because the MTT assay involved plating cells of equal number 24 hours in advance of each assay time point, there was continual selection for live cells, which is likely to have masked the accrued effects detected with longer-term plating for the flow cytometric analysis and the colony assay. […] To further substantiate the mutant p53 dependence of cell cycle perturbation induced through PML knockdown, H1299 cells either without, or bearing mutant p53^175, were subjected to cell cycle analysis and flow cytometry (FIG. 10).

p53 null H1299 cells = test: Cell cycle analysis and flow cytometry
Method: as §1

Cyclin B2 promoter = test: Luciferase reporter assay pCCAAT-B2LUC in SKBR3; conditions: SKBR3, adriamycin 0.5 μg/ml
Method: (§2) For LacZi-SKBR3 and PML3i-SKBR3, cells (1.5×10^5) were transiently transfected with expression plasmids, reporter constructs, and 0.51 μg of CMV β-galactosidase plasmid (pcDNA3-β-gal vector) as an internal control for transfection efficiency. Precipitates were removed and cells were treated with 0.5 μg/ml ADR for 48 hr. Luciferase activity was assayed on whole-cell extract, as described (Manni et al.). The luciferase values were normalized to β-galactosidase activity and protein content.
(§3) In addition, the effect of PML down-regulation on the transcription of the mutant p53 targets cyclin B2 and Cdc25C, in response to genotoxic stress, was examined in the endogenous mutant p53^175 background of SKBR3 cells. SKBR3 cells were transfected with either PML3i (SEQ ID No: 3) or shp53 (GACTCCAGTGGTAATCTA; SEQ ID No: 10), and luciferase reporter constructs for either Cyclin B2 or Cdc25c. After 24 hours, the cells were exposed to adriamycin (0.5 μg/ml). Down regulation of p53 suppressed the induction of both promoters (FIG. 6B(i) and (ii), respectively). […] The suppression of endogenous cyclin B2 and Cdc25C in response to either p53 or PML down-regulation, under the influence of Adriamycin, was also confirmed at the RNA level by RT-PCR (FIG. 6C).

cyclin B2 RNA = test: RT-PCR of endogenous mutant p53 target in SKBR3; conditions: SKBR3, under Adriamycin
Source text: (§4) Cellular RNA was isolated by Tri-Reagent (MRC Inc.; Cincinnati, Ohio, USA) using the manufacture's instructions, DNA was removed from the samples using DNase treatment (DNA-free kit, Ambion Applied Biosystems; Foster City, Calif., USA), cDNA was synthesized from the purified RNA using M-MLV Reveres Transcription kit (Promega, Madison, Wis., USA). Primers for ribosomal 18S were forward: […] (SEQ ID No: 6); and reverse: […] (SEQ ID No: 7). Primers for PML were forward: CGCCCTGGATAACGTCTTT (SEQ ID No: 8) and reverse: ACTGTGGCTGCTGTCAAGG (SEQ ID No: 9).
as §3

Cdc25C RNA = test: RT-PCR of endogenous mutant p53 target in SKBR3; conditions: SKBR3, under Adriamycin
Source text: as §4, §3

Cdc25C promoter = test: Luciferase reporter assay pCCAAT-cdc25CLUC in SKBR3; conditions: SKBR3, adriamycin 0.5 μg/ml
Method: as §2, §3

[2] = tested on: p53 Thr18 phosphorylation; test: Immunoblot of IR-induced p53 Thr18 phosphorylation in NB4 cells; conditions: As2O3 1 μM 4 h, γ-IR 5Gy
Method: (§5) Western blot analysis and immunoprecipitation assays were carried out as previously described (Louria-Hayon et al.). The antibodies used in this study were: anti-human p53 monoclonal antibodies PAb1801 and D01, anti-phospho-p53 Thr^18 polyclonal antibody (Saito et al.), anti-phospho-p53 Ser^20 polyclonal antibody (Cell Signaling Technology, Beverly, Mass., USA); anti-PML monoclonal antibody (clone PML-97; Sigma Chemical Co., St Louis, Mo., USA), anti-GFP (Roche Applied Science, Mannheim, Germany), HRP-conjugated goat anti-mouse IgG, Envision peroxidase anti-mouse or anti-rabbit (Dako Corp., Glostrup, Denmark). The antibodies anti-p53 goat polyclonal antibody (FL-393, AC), anti-p53 rabbit polyclonal antibody (FL-393, FC) and anti-PML polyclonal rabbit antibody ((H-238) sc-5621) were from Santa Cruz Biotechnology, Santa Cruz, Calif., USA.
The inventors have previously shown that PML facilitates the phosphorylation of wt p53 at Ser^20 by check-point kinase 2 (Chk2; Louria-Hayon et al.) and Thr^18 by CK1 (Alsheich-Bartok et al.). These observations raised the surprising possibility that PML may also facilitate the phosphorylation of mutant p53.

PML = test: Western blot of PML knock-down by shRNA
Source text: Cell lines in which PML was inducibly knocked-down were generated by co-infection with a lentivirus (pLVTHM) expressing the short hairpin RNA (shRNA) PML target sequence GACCAACAACATCTTCTGC (shPML1; SEQ ID No: 1) or AGATGCAGCTGTATCCAAG (shPML2; SEQ ID No: 2; Tavalai et al.) and a lentivirus expressing a tetracycline repressor (pLV-Ttrkrab-Red). Control cell lines with shLacZ and relevant wobble shPML control sequences GACCAACAATATATTCTGC (w-shPML1; SEQ ID No: 4) and AGATGCAGCTGTATCCAAG (w-shPML2; SEQ ID No: 5) were also generated under the control of a tetracycline repressor. PMLi to target sequence GAGTCGGCCGACTTCTGGT (SEQ ID No: 3; Bruno et al), referred to subsequently as PML3i was transfected into SKBR3 cells using Lipofectamine™ 2000 (Invitrogen Corporation, Carlsbad, Calif. 92008 USA), according to the manufacturer's instructions.
as §5

HT29 cells [3] = test: Flow cytometry of live/dead cells by propidium iodide exclusion
Method: (§6) Cells were cultured in the absence or presence of doxycyclin (0.2 μg/ml added every second day) for three days then 25,000 cells were plated (with doxycyclin maintainance in culture for continued shRNA induction) and harvested at selected time points. Cells adherent to the plate were released with trypsin-EDTA and combined with those suspended in the culture supernatant prior to flow cytometric analysis of live cell numbers, as discriminated by propidium iodide exclusion using a cell sorter (FACSCalibur) harnessed to CellQuest software (BD Biosciences; San Jose, Calif., USA).

SW480 cells [4] = test: as above
Method: as §6

PML transcript = test: RT-PCR of PML transcript after shRNA knock-down
Source text: as §4

HT29 cells [5] = test: Cell cycle analysis by BrdUrd incorporation; conditions: for relative number of cells cycling through the S-phase: versus parental line
Method: Cells were plated 2×10^6/10 cm dish and allowed to recover 24 h. BRDU was incorporated (20 μM, 4 h), prior to cell harvest with trypsin-EDTA and fixation in 70% methanol, −20° C. overnight. BRDU detection was undertaken subsequent to sequential rehydration in HCl(2N)/Triton-X(0.5%) then incubation in Boric acid (0.1M), anti-DRDU FITC antibody (BD Biosciences; San Jose, Calif., USA) in PBS/BSA(1%)/Triton-X(0.5%). DNA was labeled using propidium iodide 0.5 mg/ml and incorporation was analyzed using the FACs calibur (BD Biosciences; San Jose, Calif., USA)

HT29 cells [6] = test: MTT metabolic assay; conditions: HT29, 3, 4 and 11 days of doxycycline exposure, compared with control w-shPML1
Method: Cells either untreated or treated with doxycyclin (0.2 μg/ml) to knock down PML were plated 4000 per well in a 96 well plate and allowed to recover for 24 h. 3-(4,5-Dimethylthiazolyl-2)-2,5-diphenyltetrazolium bromide (MTT, […] final concentration) was added to the wells and the experiment was terminated after an additional 4 h incubation, by aspiration of the liquid and addition of 200 μl of DMSO. The absorbance was read at 540 nm, relative to a reference wavelength of 630 nm (Mosmann et al.).

HT29 cells [7] = test: Colony formation assay; conditions: HT29, doxycycline-induced PML knockdown for 21 d
Method: (§7) Cancer cell lines were plated (700 per well) in 5 cm diameter dishes in the absence or presence of tetracycline (0.2 μg/ml added every second day) for 21 days. At harvest the cells were fixed in ethanol and stained in 0.1% crystal violet.

SW480 cells [8] = test: Colony formation assay; conditions: SW840 as printed, doxycycline-induced PML knockdown for 21 d
Method: as §7

[9] = HT29, 3 days of doxycyclin induction
[10] = HT29, 8 days of continuous PML knock down

Row | Substance | G2 [1] | cell cycle profile (p53 null H1299 cells) | Cyclin B2 promoter activity (luciferase) (Cyclin B2 promoter) | endogenous cyclin B2 RNA level (cyclin B2 RNA) | endogenous Cdc25C RNA level (Cdc25C RNA) | Cdc25C promoter activity (luciferase) (Cdc25C promoter) | expression of major PML isoforms (PML; HT29, doxycycline 72 h) | expression of major PML isoforms (PML; SW480, doxycycline 72 h) | relative number of cells cycling through the S-phase (HT29 cells [5]; [9]) | also measured
1 | PML3i: siRNA to PML target sequence GAGTCGGCCGACTTCTGGT (Bruno et al), transfected with Lipofectamine 2000 (listed as DNA, chemistry not given here) | striking increase | not disrupted | reduced | suppression | suppression | reduced |  |  |  | cell death (SKBR3 cells): without significant cell death; live cell numbers (SKBR3 cells): slightly reduced
2 | arsenic trioxide [As2O3] |  |  |  |  |  |  |  |  |  | IR-induced phosphorylation of p53 on Thr18 [2]: facilitated
3 | shPML1: lentivirus-expressed, doxycycline-inducible short hairpin RNA to PML target sequence GACCAACAACATCTTCTGC |  |  |  |  |  |  | reduced | reduced | comparable | cell death (HT29 cells [3]; HT29, 7 or 8 days of PML down regulation): modest increase; number of live cells (HT29 cells [3]; HT29, 7 or 8 days of doxycyclin exposure): significantly reduced; cell death (SW480 cells [4]; SW480, 7 or 8 days of PML down regulation): modest increase; number of live cells (SW480 cells [4]; SW480, 7 or 8 days of doxycyclin exposure): significantly reduced; PML transcript level (PML transcript; HT29, RT-PCR normalized to 18 s): reduction; PML transcript level (PML transcript; SW480, RT-PCR normalized to 18 s): reduction; level of G1 (HT29 cells [5]; [9]): slightly higher; level of G2 (HT29 cells [5]; [9]): lower; BrdUrd incorporation into the S-phase (HT29 cells [5]; [10]): reduced markedly; G1 (HT29 cells [5]; [10]): increases; G2 (HT29 cells [5]; [10]): increases; rate of metabolism (MTT) (HT29 cells [6]): slightly lower; inhibition of colony formation (HT29 cells [7]): > 90%; inhibition of colony formation (SW480 cells [8]): > 70%
4 | shp53: RNA interference construct to p53, GACTCCAGTGGTAATCTA [reference compound] | striking increase | not disrupted | suppressed | suppression | suppression | suppressed |  |  |  | 
5 | w-shPML1: wobble shPML control sequence GACCAACAATATATTCTGC [reference compound] |  |  |  |  |  |  | failed to reduce PML levels | failed to reduce PML levels | comparable | 
